Source: patent US5420126A, “3,4-dihydro-2H-1,4-benzoxazine derivatives and pharmaceutical compositions containing the same” (Yamanouchi Pharmaceutical Co., Ltd., priority 1989, dated 1995)

Experiments:
[1] = tested on: cardiovascular system (mean blood pressure, coronary blood flow); assay: Effects on the cardiovascular system in anesthetized dogs (i.v.); assay type: in vivo, Mongrel dogs
Experimental: (§1) The compounds, when given intravenously, reduced the blood pressure and increased the coronary blood flow in the dose range of 1 to 1,000 μg/kg and, when administered into the coronary artery, they dilated the coronary artery in the dose range of 0.3 to 100 μg.
(2) Effects on the cardiovascular system
Mongrel dogs of either sex were anesthetized with pentobarbital, 30 mg/kg i.v. and, after tracheal intubation, the experiment was performed under artificial respiration. After thoracotomy, heart rate, blood pressure, left ventricular pressure, max dLVP/dt, pulmonary arterial pressure, central venous pressure, cardiac output and coronary blood flow were measured. The test compound was administered through a cannula indwelt in the femoral vein and the efficacy was evaluated.
(3) Coronary vasodilating effect

[2] = tested on: 3,4-diaminopyridine-induced rhythmic contractions of left coronary artery ring segments; assay: Inhibition of 3,4-diaminopyridine-induced rhythmic contractions (frequency) in isolated coronary artery rings; parameters: species or system Mongrel dogs; settings: Canis lupus familiaris; isolated dog coronary artery rings; 3,4-diaminopyridine 10 mM; 37° C.; read-out: IC50, inhibitory effect on the frequency of 3,4-diaminopyridine-induced rhythmic contractions
Experimental: as §1
(1) Effects on 3,4-diaminopyridine-induced rhythmic contractions
The method of Uchida and Sugimoto (Myakkangaku, 24, 133-143, 1984) was used. Mongrel dogs of either sex were anesthetized with pentobarbital (30 mg/kg i.v.) and bled to death and, then, the heart was excised from each animal. In the Krebs-Henseleit solution, the left coronary circumflex branch or the anterior descending branch was isolated and cut into rings, about 2 mm in width. The ring segment was fixed to a stainless steel hook and suspended in a Krebs-Henseleit bath (37° C.) aerated with 95%O2 -5%CO2 gas mixture under a tension load of 1.0 g, and isometric contractions were recorded.
After the specimen was stabilized for 30 minutes, rhythmic contractions were induced by addition of 3,4-diaminopyridine (10 mM). When the amplitude and frequency of rhythmic contractions became substantially steady, cumulative addition of the test compound to the organ bath was started. The concentration-response curves for the amplitude and frequency of contractions were constructed and the efficacy was evaluated.
The inhibitory effect on the frequency of contractions is shown in Column (1) in Table 1.

[3] = Acute toxic effect (LD50), intravenous; settings: mouse, in vivo, i.v. (caudal vein), male mice, up and down method, read-out: LD50, acute toxic dose
Experimental: (§2) Then, in connection with Examples 1 and 2, the hypotensive effect of the test compound given orally in conscious spontaneously hypertensive rats (SHR) and the intravenous acute toxicity in mice were determined.
The acute toxic dose (LD50) of the test compound administered into the caudal vein was determined by the up and down method in male mice.

[4] = tested on: spontaneously hypertensive rats (SHR); assay: Hypotensive effect, oral, in conscious spontaneously hypertensive rats (SHR); assay type: in vivo, Spontaneously hypertensive rats (SHR) of Okamoto-Aoki strain
Experimental: as §2
Spontaneously hypertensive rats (SHR) of Okamoto-Aoki strain were anesthetized with pentobarbital, 60 mg/kg i.p. Then, a cannula for blood pressure measurement was indwelt in the left common carotid artery and the other end of the cannula was led out extracorporeally from the posterior neck. After a stabilization period of 4-5 postoperative days, the blood pressure and heart rate were measured without restraint under no anesthesia. The test compound was suspended in 0.5% methylcellulose solution and the suspension was orally administered in a volume of 5 ml/kg and the efficacy was evaluated.

| Structure (SMILES) | MBP: mean blood pressure-lowering effect (percent reduction) ([1]; 10 μg/kg i.v.) | IC50 [2] | LD50 [3] | MBP: mean blood pressure-lowering effect (percent reduction) ([1]; 3 μg/kg i.v.) | MBP: mean blood pressure-lowering effect ([4]; 30 μg/kg p.o.) | MBP: mean blood pressure-lowering effect ([4]; 300 μg/kg p.o.) |
| --- | --- | --- | --- | --- | --- | --- |
| CC1(C)CN(C2=CCCC2=O)c2cc([N+](=O)[O-])ccc2O1 [Example 70, 3,4-Dihydro-2,21-dimethyl-6-nitro-4-(5-oxo-1-cyclopenten-1-yl) -2H-1,4-benzoxazine] | -9 Δ% | 10 nM | – | – | – | – |
| CC1(C)CN(c2cccc[n+]2[O-])c2cc([N+](=O)[O-])ccc2O1 [Example 1, 2-(3,4-dihydro-2,2-dimethyl-6-nitro-2H-1,4-benzoxazin-4-yl)pyridine N-oxide] | – | 10 nM | 50.4 mg/kg | -16 Δ% | -25 Δ% | – |
| CN(C)C(=O)CN1CC(C)(C)Oc2ccc([N+](=O)[O-])cc21 [Example 56, 2-(3,4-dihydro-2,2-dimethyl-6-nitro-2H-1,4-benzoxazin-4-yl)-N,N-dimethylacetamide] | – | 20 nM | – | -11 Δ% | – | – |
| CC1(C)CN(N2CCCC2=O)c2cc([N+](=O)[O-])ccc2O1 [41(4), 3,4-dihydro-2,2-dimethyl-4-(2-oxo-1-pyrrolidinyl)-6-nitro-2H-1,4-benzoxazine] | – | 50 nM | – | -20 Δ% | – | – |
| CC(=O)CN1CC(C)(C)Oc2ccc([N+](=O)[O-])cc21 [Example 38, 4-Acetonyl-3,4-dihydro-2,2-dimethyl-6-nitro-2H-1,4-benzoxazine] | -23 Δ% | 70 nM | – | – | – | – |
| CC1(C)CN(c2cccc[n+]2[O-])c2cc(C#N)ccc2O1 [Example 2, 2-(6-cyano-3,4-dihydro-2,2-dimethyl-2H-1,4-benzoxazin-4-yl)pyridine N-oxide] | -20 Δ% | 240 nM | > 60 mg/kg | – | – | -40 Δ% |
| CC1(C)Oc2ccc(C#N)cc2C(N2CCCC2=O)C1O (centres unmarked) [Cromakalim, reference compound] | -28 Δ% | 390 nM | 49.7 mg/kg | – | – | -35 Δ% |
